From patent US7553798B2, “Heterocyclic carboxamides with microbiocidal activity” (Syngenta Crop Protection, Inc., priority 2004, dated 2009)

| melting point [°C] | SMILES |
| --- | --- |
| 122 to 125 | Cn1cc(C(=O)Nc2ccccc2-c2ccc(C#CC(C)(C)C)s2)c(C(F)(F)F)n1 [Compound 1ai.098, 1-methyl-3-trifluoromethyl-1H-pyrazole-4-carboxylic acid {2-[5-(3,3-dimethyl-but-1-ynyl)-thiophen-2-yl]-phenyl}-amide] |
| 145 to 148 | Cn1cc(C(=O)Nc2ccccc2-n2cc(C#CC(C)(C)C)cn2)c(C(F)F)n1 [Compound 1ar.099, 3-difluoromethyl-1-methyl-1H-pyrazole-4-carboxylic acid {2-[4-(3,3-dimethyl-but-1-ynyl)-pyrazol-1-yl]-phenyl}-amide] |
